GI50 and TGI data for 7 compounds are collected here from PubChem BioAssay (NCI).

Molecules are shown by their SMILES.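 Test compounds were applied to cells in 96-well plates for 48 hours at 5 doses. GI50 is the concentration that inhibits growth by half. Definition used: TGI = concentration required for complete inhibition of growth.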

One may read the GI50 as the concentration giving 50% growth inhibition. One may read the TGI as the concentration giving total growth inhibition. Higher therefore signals lower sensitivity of the cells.

Common to all, as to experiment: DTP human tumour cell line panel, 48 h
Assay [1] concerns SK-MEL-28 melanoma.
Assay [2] relates to SW-620 colon.
Assay [3] concerns OVCAR-8 ovarian.
In assay [4] the test system is RXF 393 renal.
Assay [5] deals with SR leukemia.
Assay [6] deals with OVCAR-3 ovarian.
The subject of assay [7] is HS 578T breast.
The test system of assay [8] is HCT-15 colon.
In assay [9] the test system is MDA-MB-435.
Assay [10] relates to OVCAR-4 ovarian.

As to `CCN1C(=O)N(CC)C2C1NN=c1s/c(=C3\C(=O)Nc4ccccc43)c(=O)n12` (stereo not given), the GI50 was 0.891 µM in assay [1]; 0.409 µM in assay [2]; 0.639 µM in assay [3]; 0.279 µM in assay [4]; 0.292 µM in assay [5]; 0.331 µM in [6]. The GI50 in assay [7] is 0.347 µM; in assay [8], 0.41 µM; in [9], 0.147 µM; in [10] it was > 59.1 µM. Besides, the total growth inhibition concentration (TGI) is > 100 µM in assay [1]; > 100 µM in assay [2]; > 53.7 µM in [3]; 1.05 µM in assay [4]; > 62 µM in assay [5]; 3.02 µM in assay [6]. The TGI in assay [7] was 17.7 µM; in assay [8] it was > 100 µM; in assay [9], 0.357 µM; in [10] it was > 100 µM.

As to `O=C1c2ccccc2C(=O)c2c1ccc1conc21`, the TGI worked out at 7.94 µM in assay [1]; 4.36 µM in assay [2]; 4.21 µM in assay [3]; 5.64 µM in [4]; 18.3 µM in assay [5]; 0.974 µM in assay [6]. The TGI worked out at 38.6 µM in assay [7], 5.66 µM in [8], 1.37 µM in assay [9] and 2.02 µM in [10].

As to `CN(C)S(=O)(=O)c1cccc(C(=O)Nc2nc(-c3ccc(F)c(F)c3)cs2)c1`, the GI50 was 18.8 µM in assay [1]; 47.9 µM in [2]; 8.28 µM in [3]; 12.4 µM in assay [4]; 6.17 µM in [5]; 18.4 µM in assay [6]. The GI50 in [7] was 14.2 µM; in assay [8] it was > 40.4 µM; in [9], 5.41 µM; in assay [10] it was 4.62 µM. The TGI in assay [1] is > 100 µM; in assay [2], > 100 µM; in [3], > 100 µM; in assay [4], > 81.5 µM; in assay [5], > 100 µM; in assay [6] it was > 95.4 µM. Further, the TGI was 91 µM in assay [7], > 100 µM in [8], > 100 µM in assay [9] and > 84.1 µM in [10].

For `CCCC(=O)Oc1ccc(/C(=C(\C)c2ccc(Cl)cc2)c2ccc(OCCN(CC)CC)cc2)cc1`, the GI50 is 1.91 µM in assay [1]; 1.99 µM in assay [2]; 3.43 µM in [3]; 1.72 µM in [4]; 1.98 µM in assay [5]; 6.98 µM in assay [6]. The GI50 in assay [7] is 2.68 µM; in assay [8] it was 1.68 µM; in assay [9], 1.78 µM; in assay [10], 4.16 µM. The TGI in assay [1] was found to be 3.91 µM; in [2] it was 4.35 µM; in assay [3] it was 11.9 µM; in assay [4] it was 3.55 µM; in [5] it was 6.92 µM; in [6], 21.4 µM. The TGI is 9.33 µM in [7], 3.73 µM in assay [8], 3.68 µM in assay [9] and 19.4 µM in assay [10].

Regarding `COc1ccc(-n2nc(C)c3c(Nc4ccc(NC(=O)Nc5cccc(C(F)(F)F)c5)cc4)ncnc32)cc1`, the GI50 in [1] was 1.85 µM; in [2] it was 2.14 µM; in [3], 1.93 µM; in [4], 0.846 µM; in assay [5], 2.54 µM; in assay [6], 1.74 µM. Further, the GI50 in [7] was 1.66 µM; in assay [8], 1.46 µM; in assay [9] it was 1.8 µM; in assay [10], 2.1 µM. The TGI was 4.76 µM in assay [1]; 5.18 µM in assay [2]; 4.39 µM in assay [3]; 2.34 µM in assay [4]; 9.38 µM in assay [5]; 3.92 µM in assay [6]. Also, the TGI in assay [7] turned out to be 4.17 µM; in assay [8], 3.27 µM; in assay [9] it was 3.78 µM; in assay [10], 5.27 µM.

Take `N#CC1=C(N)NC(=O)C(C#N)C12Nc1ccccc1S2` (stereo not given): the GI50 in [1] is > 100 µM; in [2], > 100 µM; in assay [3], 91.3 µM; in [4], 20.4 µM; in assay [5] it was 52.4 µM; in [6], 32.6 µM. The GI50 in [7] is 43.2 µM; in assay [8], > 100 µM; in assay [9], > 100 µM; in assay [10] it was > 100 µM. Further, the TGI in assay [1], in assay [2], in assay [3], in [4], in assay [5] and in assay [6] was > 100 µM in each case. Besides, the TGI in assay [7], in assay [8], in assay [9] and in [10] was > 100 µM in each case.

For `O=C(O)c1cccc([As]=[As]c2cccc(C(=O)O)c2)c1` (stereo not given), the TGI in assay [1] is > 100 µM; in [2] it was > 100 µM; in [3], > 100 µM; in assay [4], 81.8 µM; in [5], 89.5 µM; in assay [6] it was > 100 µM. Moreover, the TGI in assay [7] was 90.8 µM; in [8] it was > 100 µM; in [9], > 100 µM; in assay [10], > 100 µM.
